Patent publication US20220387404A1, “TREATMENT OF CANCER USING A COMBINATION COMPRISING MULTI-TYROSINE KINASE INHIBITOR AND IMMUNE CHECKPOINT INHIBITOR” (BEIGENE, LTD., priority 2019, published 2022)

Legend:
[1] = test system: A431 (epidermal carcinoma) cells; test: Combination efficacy in A431 allogeneic mouse model (A431 cells + human PBMC, s.c.); format: in vivo, Nod-Scid mice; settings: Mab-1 10 mg/kg QW i.p., Compound 1 1.5 mg/kg QD P.O.
Experimental: Female Nod-Scid mice were pretreated with cyclophosphamide (in saline, 100 mg/kg intraperitoneal, QD×2) and disulfiram (in 0.8% Tween-80 in saline 125 mg/kg oral gavage, 2 hr after the dose of cyclophosphamide). Two days later, mice with higher body weight were subcutaneously implanted with 2.5×10^6 A431 (epidermal carcinoma) cells and 5×10^6 freshly isolated peripheral blood mononuclear cells (PBMC) on the right flank. After inoculation, mice were randomly assigned into 4 groups with 10 animals in each group according to body weight. Then mice were treated with vehicle (PEG400/0.1N HCL in saline, 40/60), Mab-1, Compound 1, and combination of Mab-1 and Compound 1, respectively. Mab-1 was given at 10 mg/kg once per week (QW) by intraperitoneal (i.p.) injection, and Compound 1 was administered at 1.5 mg/kg once per day (QD) by oral gavage (P.O.). Tumor volume was determined twice weekly in two dimensions using a caliper, and expressed in mm^3 using the formula: V=0.5(a×b^2), where a and b are the long and short diameters of the tumor, respectively.
Data are presented as mean tumor volume±standard error of the mean (SEM). Tumor growth inhibition (TGI) is calculated using the following formula:
treated t=treated tumor volume at time t;treated t0=treated tumor volume at time 0; placebo t=placebo tumor volume at time t; placebo t0=placebo tumor volume at time 0.

[2] = test system: MC38 (colon adenocarcinoma) cells; test: Combination efficacy in MC38 syngeneic mouse model; format: in vivo, BALB/C mice; settings: muCh15mt 3 mg/kg QW i.p., Compound 1 5 mg/kg QD P.O.
Experimental: Female BALB/C mice were s.c implanted with 1×10^6 MC38 (colon adenocarcinoma) cells per 150 μl PBS in the right flank. After inoculation, mice were randomized into 4 groups with 15 animals in each group. The mice were treated with vehicle (PEG400/0.1N HCL in saline, 40/60), muCh15mt, Compound 1, and the combination treatment of much15mt and Compound 1, respectively. MuCh15mt was given at 3 mg/kg once per week (QW) by intraperitoneal (i.p.) injection, and Compound 1 was administered at 5 mg/kg once per day (QD) for 25 days by oral gavage (P.O.). Tumor volumes were determined twice weekly in two dimensions using a caliper, and were expressed in mm^3 using the formula: V=0.5(a×b^2) where a and b are the long and short diameters of the tumor, respectively.
Data are presented as mean tumor volume+standard error of the mean (SEM). Tumor growth inhihition (TGI) is calculated using the following formula:
(§1) treated t=treated tumor volume at time t treated t0=treated tumor volume at time 0 placebo t=placebo tumor volume at time t placebo t0=placebo tumor volume at time 0

[3] = test system: A20 (B cell lymphoma) cells; test: Combination efficacy in A20 syngeneic mouse model; format: in vivo, BALB/C mice; settings: muCh15mt 3 mg/kg QW i.p., Compound 1 5 mg/kg QD P.O.
Experimental: Female BALB/C mice were s.c implanted with 1×10^5 A20 (B cell lymphoma) cells per 150 μl PBS in the right flank. After inoculation, tumor volumes were determined twice weekly in two dimensions using a caliper, and were expressed in mm^3 using the formula: V=0.5(a×b^2) where a and b are the long and short diameters of the tumor, respectively. When tumor volume reached approximately 100 mm^3, mice were randomized into 4 groups with 12 animals in each group according to tumor volume. The mice were then treated with vehicle (PEG400/0.1N HCL in saline, 40/60), muCh15mt, Compound 1, and the combination, respectively. MuCh15mt was given at 3 mg/kg once per week (QW) by intraperitoneal (i.p.) injection, and Compound 1 was administered at 5 mg/kg once per day (QD) by oral gavage (P.O.).
Data are presented as mean tumor volume ±standard error of the mean (SEM). Tumor growth inhibition (TGI) is calculated using the following formula:
as §1

[4] = test system: CT26WT (colon carcinoma) cells; test: Combination efficacy in CT26WT syngeneic mouse model; format: in vivo, BALB/c mice; settings: muCh15mt 3 mg/kg QW i.p., Compound 1 5 mg/kg QD oral gavage
Experimental: Female BALB/c mice were s.c implanted with 2×10^5 CT26WT (colon carcinoma) cells per 150 ul PBS in the right flank. After inoculation, mice were randomized into 4 groups with 12 animals in each group. The mice were treated with vehicle (PEG400/0.1N HCL in saline, 40/60), muCh15mt, Compound 1, and the combination of muCh15mt and Compound 1, respectively. MuCh15mt was given at 3 mg/kg once per week (QW) by intraperitoneal (i.p.) injection, and Compound 1 was administered at 5 mg/kg once per day (QD) by oral gavage. Tumor volume was determined twice weekly in two dimensions using a caliper, and was expressed in mm^3 using the formula: V=0.5(a×b^2) where a and b are the long and short diameters of the tumor, respectively. Data are presented as mean tumor volume 1 standard error of the mean (SEM). Tumor growth inhibition (TGI) is calculated using the following formula:
as §1

COCCNCc1ccc(-c2cc3nccc(Oc4ccc(NC(=O)C5(C(=O)Nc6ccc(F)cc6)CC5)cc4F)c3s2)nc1 [Compound 1]
Mean Tumor Volume on Day 26 (mm^3) [1]: 851.5 mm^3 | TGI (%) on Day 26 [1]: 37% | Mean Tumor Volume on Day 25 (mm^3) [2]: 1089.5 mm^3 | TGI (%) on Day 25 [2]: 56% | Tumor Free Animal % on Day 25 [2]: 0% | TGI (%) on Day 15 ([3]; Day 15): 71% | Mean Tumor Volume on Day 18 (mm^3) ([3]; Day 18): 735.7 mm^3 | Tumor Free Animal % on Day 18 ([3]; Day 18): 8.3% | Mean Tumor Volume on Day 28 (mm^3) [4]: 723.2 mm^3 | TGI (%) on Day 28 [4]: 71% | Tumor Free Animal (%) on Day 28 [4]: 6.7%
